Experimental data from publication PMC4645630 (The Journal of Biological Chemistry, 2015).

Tests used:
GCGR with RAMP2 [1] = target: T1, GCGR with RAMP2 (Homo sapiens, UniProt O60895+P47871); test: cAMP accumulation assay, HEK-293 cells co-expressing GCGR and RAMP2; assay type: cell-based; conditions: Table 3, cAMP
T1 construct: expressed in transfected cells; host or cells: HEK-293 (293T)
Protocol: (§1) Data were analyzed using Prism version 6.0e (GraphPad Software, San Diego, CA). EC50 and Emax values were obtained through fitting of a three-parameter logistic equation. Relative efficacy (log τ) and equilibrium dissociation constants (log KA) were generated through use of an operational model for partial agonism ([23]). […] Statistical differences were analyzed before data were normalized, using a Student's test or one-way analysis of variance (ANOVA) with Bonferroni's or Dunnett's multiple comparisons as appropriate, and p < 0.05 was considered significant.

GCGR with RAMP2 [2] = target: T1, GCGR with RAMP2; test: Yeast growth reporter assay, GPA1/Gαs chimera strain expressing GCGR and RAMP2; assay type: cell-based; conditions: Table 4, yeast GPA1/Gαs
Protocol: (§2) General yeast procedures were performed as described previously ([17], [18]). […] Mammalian GPCRs and RAMPs were introduced to the yeast strains under the control of the GAPDH promoter using plasmids containing either ura3 (p426-GPD) or leu2 (p425-GPD). Plasmids were transformed in a 1:1 ratio to enable equal expression levels of both the RAMP and receptors. Transformation was achieved using the lithium acetate/single-stranded DNA/polyethylene glycol method as described previously ([20]). Positive transformants were selected and maintained on medium lacking uracil and leucine. Receptor signaling was measured using the yeast growth assay ([21]) adapted as described previously ([17]). Initially, cell growth was performed in SD−URA−LEU medium at 30 °C to select for only those cells expressing both plasmids. Cells were then cultured to remove basal activity in SD−URA−LEU−HIS medium overnight at 30 °C and assayed using fluorescein-di-β-D-glucopyranoside-supplemented medium in the presence of different concentrations of ligand (0.01 nM to 100 mM). Fluorescence was measured on a TECAN Infinite M200 microplate reader (TECAN Ultra Evolution, Reading, UK).
as §1

GCGR with RAMP2 [3] = target: T1, GCGR with RAMP2; test: Yeast growth reporter assay, GPA1/Gαi chimera strain expressing GCGR and RAMP2; assay type: cell-based; conditions: Table 5, yeast GPA1/Gαi
Protocol: as §2, §1

GCGR with RAMP2 [4] = target: T1, GCGR with RAMP2; test: Whole cell competition binding with [125I]glucagon, GCGR with RAMP2; conditions: whole cells, [125I]glucagon 0.1 nM, 16 h at 4 °C
GCGR [5] = target: T2, GCGR (Homo sapiens, UniProt P47871); test: Whole cell competition binding with [125I]glucagon, GCGR without RAMP2; set-up: expressed in transfected cells; conditions: no RAMP2
T2 sequence (P47871 26-477): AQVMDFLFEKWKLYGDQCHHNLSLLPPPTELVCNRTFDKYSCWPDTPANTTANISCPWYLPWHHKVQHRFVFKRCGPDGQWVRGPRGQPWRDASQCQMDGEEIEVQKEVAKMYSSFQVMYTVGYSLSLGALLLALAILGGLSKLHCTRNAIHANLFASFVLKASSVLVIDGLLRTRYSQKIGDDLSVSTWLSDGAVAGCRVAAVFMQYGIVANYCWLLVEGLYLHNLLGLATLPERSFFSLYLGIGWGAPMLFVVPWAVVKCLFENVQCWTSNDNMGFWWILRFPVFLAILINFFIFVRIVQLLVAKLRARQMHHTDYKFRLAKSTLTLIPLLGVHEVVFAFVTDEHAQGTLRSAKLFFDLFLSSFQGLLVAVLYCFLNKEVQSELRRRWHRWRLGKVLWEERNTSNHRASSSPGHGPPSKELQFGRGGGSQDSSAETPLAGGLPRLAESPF
Protocol: Cells were seeded into 6-well plates and grown to 80% confluence before transfection with 1.5 μg of plasmid DNA and incubated for a further 24 h. Medium was then replaced with fresh DMEM, and cells were transferred onto a 96-well plate coated with poly-D-lysine and incubated for 24 h to achieve confluence prior to assay. […] For the assay, cells were washed in assay buffer, 0.1 nM of radioligand and various concentrations of the peptides were added, and the plate was incubated for 16 h at 4 °C. Following washing with ice-cold assay buffer, 100 μl of NaOH (0.1 M) was added to each well, and the plate was incubated for 5 min on ice. Cells were removed, and the plate was washed with 100 μl of HCl (0.1 M). Radioactivity was determined in 2 ml of Safefluor scintillant (PerkinElmer Life Sciences) using a liquid scintillation counter with a count time of 3 min/sample. Values were corrected for nonspecific binding as determined by the amount of radioligand detected bound to cells not expressing GCGR.

GCGR [6] = target: T2, GCGR; test: cAMP accumulation assay, HEK-293 cells expressing GCGR with vector control; assay type: cell-based; set-up: expressed in transfected cells; host or cells: HEK-293 (293T)
Protocol: as §1

GCGR [7] = target: T2, GCGR; test: Yeast growth reporter assay, GPA1/Gαs chimera strain expressing GCGR with vector; assay type: cell-based; set-up: expressed in transfected cells; host or cells: HEK-293 (293T)
Protocol: as §2, with “Cells were then cultured to remove basal activity in SD−URA−LEU−HIS medium overnight at 30 °C and assayed using fluorescein-di-β-D-glucopyranoside-supplemented medium in the presence of different concentrations of ligand (0.01 nM to 100 mM).” left out
(§3) Data were analyzed using Prism version 6.0e (GraphPad Software, San Diego, CA). […] Statistical differences were analyzed before data were normalized, using a Student's test or one-way analysis of variance (ANOVA) with Bonferroni's or Dunnett's multiple comparisons as appropriate, and p < 0.05 was considered significant.

GCGR [8] = target: T2, GCGR; test: Yeast growth reporter assay, GPA1/Gαi chimera strain expressing GCGR with vector; assay type: cell-based; set-up: expressed in transfected cells; host or cells: HEK-293 (293T)
Protocol: as §2, with “Cells were then cultured to remove basal activity in SD−URA−LEU−HIS medium overnight at 30 °C and assayed using fluorescein-di-β-D-glucopyranoside-supplemented medium in the presence of different concentrations of ligand (0.01 nM to 100 mM).” left out
as §3

[9] = GCGR + RAMP2, mean ± S.E., five repeats
[10] = RAMP2, operational model relative to glucagon
[11] = RAMP2, percentage of glucagon response without RAMP co-expression

T1 sequence (P47871 26-477): as above
T1 sequence (O60895 43-175 partner): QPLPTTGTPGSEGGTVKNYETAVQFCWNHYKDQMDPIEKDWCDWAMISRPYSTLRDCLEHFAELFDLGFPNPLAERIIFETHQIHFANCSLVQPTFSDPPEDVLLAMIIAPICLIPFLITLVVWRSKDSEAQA

Compound: CCCCCCCCCCCCCCCC(=O)N[C@@H](CCC(=O)NCCCC[C@H](NC(=O)[C@H](C)NC(=O)[C@H](C)NC(=O)[C@H](CCC(N)=O)NC(=O)CNC(=O)[C@H](CCC(=O)O)NC(=O)[C@H](CC(C)C)NC(=O)[C@H](Cc1ccc(O)cc1)NC(=O)[C@H](CO)NC(=O)[C@H](CO)NC(=O)[C@@H](NC(=O)[C@H](CC(=O)O)NC(=O)[C@H](CO)NC(=O)[C@@H](NC(=O)[C@H](Cc1ccccc1)NC(=O)[C@@H](NC(=O)CNC(=O)[C@H](CCC(=O)O)NC(=O)[C@H](C)NC(=O)[C@@H](N)Cc1c[nH]cn1)[C@@H](C)O)[C@@H](C)O)C(C)C)C(=O)N[C@@H](CCC(=O)O)C(=O)N[C@@H](Cc1ccccc1)C(=O)N[C@H](C(=O)N[C@@H](C)C(=O)N[C@@H](Cc1c[nH]c2ccccc12)C(=O)N[C@@H](CC(C)C)C(=O)N[C@H](C(=O)N[C@@H](CCCNC(=N)N)C(=O)NCC(=O)N[C@@H](CCCNC(=N)N)C(=O)NCC(=O)O)C(C)C)[C@@H](C)CC)C(=O)O [Liraglutide]
- log τ (GCGR with RAMP2 [1]; GCGR + RAMP2, coupling efficiency, operational model relative to glucagon): N.R
- pKA (GCGR with RAMP2 [1]; GCGR + RAMP2, operational model for partial agonism relative to glucagon): N.R
- Emax (GCGR with RAMP2 [1]; GCGR + RAMP2, percentage of glucagon response without RAMP co-transfection): N.R
- pEC50 (GCGR with RAMP2 [1]; HEK-293, GCGR + RAMP2, mean ± S.E., five repeats): N.R
- pEC50 (GCGR with RAMP2 [2]; [9]): N.R
- log τ (GCGR with RAMP2 [2]; [10]): N.R
- pKA (GCGR with RAMP2 [2]; [10]): N.R
- Emax (GCGR with RAMP2 [2]; [11]): N.R
- pEC50 (GCGR with RAMP2 [3]; [9]): N.R
- log τ (GCGR with RAMP2 [3]; [10]): N.R
- pKA (GCGR with RAMP2 [3]; [10]): N.R
- Emax (GCGR with RAMP2 [3]; [11]): N.R
- binding to the GCGR upon RAMP2 co-transfection (GCGR with RAMP2 [4]): failed to bind
- affinity for the GCGR relative to the native peptide (glucagon) (GCGR [5]; whole cell competition binding): higher affinity
- binding to the GCGR in competition with glucagon (GCGR [5]; whole cells, [125I]glucagon 0.1 nM, 16 h at 4 °C): bound to the GCGR
- EC50 (GCGR [6]; Table 3, cAMP, HEK-293, GCGR + vector, mean ± S.E., five repeats, SEM): 10 nM
- Emax (GCGR [7]): 80.1 ± 7.5%
- EC50 (GCGR [7]; Table 4, yeast GPA1/Gαs, GCGR + vector, mean ± S.E., five repeats, SEM): 3160 nM
- Emax (GCGR [8]): 84 ± 9.4%
- EC50 (GCGR [8]; Table 5, yeast GPA1/Gαi, GCGR + vector, mean ± S.E., five repeats, SEM): 20 nM

Compound: des-His^1-[Glu^9]glucagon(1–29) amide
- effect of GCGR antagonist on GLP-1 and liraglutide signaling through the GCGR (GCGR [6]; cAMP, HEK-293 cells with GCGR): inhibited
